{"source": "paper PMC3743924", "about": "(The Biochemical journal, 2013)", "key": {"[1]": {"target": "T1, APH(3')-Ia (Escherichia coli, UniProt P00551)", "T1 sequence (P00551 whole entry)": "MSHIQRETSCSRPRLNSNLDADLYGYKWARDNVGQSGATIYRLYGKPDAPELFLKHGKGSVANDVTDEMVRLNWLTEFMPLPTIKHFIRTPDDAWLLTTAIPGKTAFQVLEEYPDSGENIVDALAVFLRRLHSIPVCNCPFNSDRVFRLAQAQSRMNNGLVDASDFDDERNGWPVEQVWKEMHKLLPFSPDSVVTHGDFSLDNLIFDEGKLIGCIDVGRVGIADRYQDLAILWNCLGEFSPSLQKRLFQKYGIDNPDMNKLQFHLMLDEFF", "test": "activity assay with kanamycin", "type": "biochemical", "settings": "co-substrate kanamycin; constants unpublished"}, "[2]": {"target": "T1, APH(3')-Ia", "test": "X-ray crystal structure, […]-2.[…] A", "type": "binding", "settings": "ternary complex with kanamycin; ATP site; pH 4.5"}, "[3]": {"target": "T1, APH(3')-Ia", "settings": "Ca2+ complex; nucleotide site"}}, "data": [{"smiles": "Nc1nc2c(ncn2[C@@H]2O[C@H](COP(=O)(O)OP(=O)(O)OP(=O)(O)O)[C@@H](O)[C@H]2O)c(=O)[nH]1", "note": "[GTP]", "values": [{"measurement": "activity assay with kanamycin", "setting": "[1]", "value": "indicating GTP is a superior substrate"}]}, {"smiles": "COc1cc2ncnc(Nc3cccc(Cl)c3)c2cc1OC", "note": "[Tyrphostin AG 1478, N-(3-chlorophenyl)-6,7-dimethoxyquinazolin-4-amine]", "values": [{"measurement": "X-ray crystal structure, 2.69-2.71 A", "setting": "[2]", "value": "the inhibitor molecule was held in the NTP binding site through hydrophobic interactions"}]}, {"smiles": "Nc1ncnc2c1ncn2[C@@H]1O[C@H](COP(=O)(O)OP(=O)(O)OP(=O)(O)O)[C@@H](O)[C@H]1O", "note": "[ATP]", "values": [{"measurement": "X-ray crystal structure, 2.3-2.4 A", "setting": "[3]", "value": "unambiguous additional density corresponding to the ATP molecule"}]}]}
